Consider six compounds from paper PMC12135063, “Pharmaceutical Analysis of Protein–Peptide Coformulations and the Influence of Polysorbates” (Molecular Pharmaceutics, 2025).

For data set [1], the target named is T1, HSA (Homo sapiens, UniProt P02768).
T1 construct: purchased Sigma-Aldrich UK; host or cells: human serum
Nature of the data set: DSC thermal stability of HSA with MEDI7219 and polysorbates. As to conditions: DSC of 10 mg/mL HSA, no polysorbate, MEDI7219 10 mg/mL where ligand. It is filed as physicochemical. As for the experimental part:
Lyophilized protein and MEDI7219 were rehydrated by adding buffer to achieve a concentration of 30 mg/mL, then stored at 5 °C for 72 h or until fully dissolved. Polysorbate solutions were prepared at 3 times higher than the desired concentration to account for dilution in the formulation after mixing with MEDI7219. Polysorbate concentrations in experiments were 0.1× and 1× each polysorbates respective CMC. Samples were produced by adding equal volumes of each component to provide the desired formulation. DSC experiments were conducted using a Microcal PEAQ-DSC instrument from Malvern Panalytical. Prior to each experiment, DSC cells were washed with 2% Decon 90 detergent and then rinsed with ultrapure water. The DSC capillary cell volume was 250 μL for both reference and sample cells; for each experiment, the reference cell contained buffer solution. […] A reference scan of the buffer solution was conducted under identical conditions and subtracted from each run. Data were analyzed using MicroCal PEAQ-DSC Analysis Software v1.64.
On the technique in general: DSC measures the heat that a sample takes up or gives off during a temperature scan.

The target of data set [2] is T1, HSA. The data set can be described thus: ITC titration of MEDI7219 into HSA in the absence and presence of polysorbate. It is filed as binding. Particulars: for Kd: read-out: dissociation constant; for αi (K B/A/K B): ratio of association constants with/without polysorbate. Here is the method:
(§1) Lyophilized protein powders were rehydrated by adding buffer to the protein to achieve a concentration of 10 mg/mL, then stored at 5 °C for 72 h or until fully dissolved. Polysorbate concentrations chosen were 0.1× and 1× the critical micelle concentration (CMC) of each respective polysorbate. Due to the dilution of injection by the ITC, polysorbate formulations were formulated at 10 times the desired concentration. ITC experiments were performed using a Microcal PEAQ-ITC instrument from Malvern Panalytical. Prior to each experiment, the sample cell and syringe were cleaned using 20% Contrad 70 detergent, rinsed with ultrapure water, and dried using methanol. Titration experiments were conducted at 30 °C to ensure that the experimental temperature was above laboratory ambient temperature. As the Microcal PEAQ-ITC lacks a cooling unit, it was necessary to conduct experiments at a temperature that could be maintained consistently. The reference cell was filled with ultrapure water for all experiments. The 200 μL sample cell was filled with protein solution, and the 40 μL injection syringe was filled with polysorbate solution and equilibrated at 5 °C below the experimental temperature. The reference power was set to 41.86 μJ/s (10 μcal/s). Experiments comprised 14 injections of 2.5 μL at an injection speed of 0.5 μL/s. The time between injections was set long enough to allow the heat signals to return to the baseline before the next injection. The solution in the reaction cell was continuously stirred at a speed of 500 rpm. Experiments requiring the titration of peptide or surfactant into protein–surfactant or protein–peptide required the continuation of one experiment into the next, to maintain precise concentration ratios between experimental pathways. As a result, once an experiment had concluded, excess solution was withdrawn and the next titration was conducted into the resulting solution. A reference experiment of polysorbate injected into buffer solution was conducted under identical conditions and subtracted from each run that contained polysorbate in the injection syringe. For experiments that contained MEDI7219 in the injection syringe, a control experiment could not be subtracted in the same manner as the polysorbate experiments. This was suspected to be a consequence of limitations in the software and the interactions generating small binding heats, leading to a noisier thermogram. However, a fitted offset was used instead, which reduced noise and allowed a smooth heat integration. Data were analyzed using MicroCal PEAQ-ITC Analysis Software v1.41. The binding model was analyzed using the one set of binding sites software preset, resulting in the values of changes in the Gibbs free energy (ΔG), enthalpy (ΔH), and entropy in relation to temperature (−TΔS). Each experiment was repeated a minimum of three times to assess the reproducibility.
On the technique in general: Isothermal titration calorimetry measures the heat released or taken up as one component is titrated into another.

The target in data set [3] is T1, HSA. The data set can be described thus: ITC titration of polysorbate into HSA in the absence and presence of MEDI7219. Type of data set: binding. Particulars: for ΔG / ΔH / –TΔS / Kd: 30 °C; for Kd: [HSA] = 0.15 mM, read-out: dissociation constant; for αii (K A/B/K A): ratio of association constants with/without MEDI7219. Here is the method:
as §1, with “The reference power was set to 41.86 μJ/s (10 μcal/s).” left out, “For experiments that contained MEDI7219 in the injection syringe, a control experiment could not be subtracted in the same manner as the polysorbate experiments. This was suspected to be a consequence of limitations in the software and the interactions generating small binding heats, leading to a noisier thermogram. However, a fitted offset was used instead, which reduced noise and allowed a smooth heat integration.” left out

Data set [4] concerns the target T1, HSA. The arrangement: method as in not given. As to conditions: native GLP-1, reported value; ref not given; cited from earlier work.
Setting [5] is: MEDI7219 → HSA + RG T20 (1 × CMC), 30 °C.
Setting [6] is: MEDI7219 → HSA + RG T80 (1 × CMC), 30 °C.
Where [7] appears, read: MEDI7219 → HSA + SR T20 (1 × CMC), 30 °C.
Setting [8] is: MEDI7219 → HSA + SR T80 (1 × CMC), 30 °C.
[9] abbreviates: MEDI7219 → HSA, no polysorbate, 30 °C.
Setting [10] is: polysorbate (1 × CMC) → HSA + MEDI7219.
Setting [11] is: polysorbate (1 × CMC) → HSA + MEDI7219, [MEDI7219] = 2.5 mM.
Setting [12] is: polysorbate (1 × CMC) → HSA, MEDI7219 absent.

Several values for one entry are separate records, joined by “and”; a condition that tells them apart may be missing. Identical values can stand only once. Like-named read-outs stand apart in the source and are kept apart here. *1 amine or outer side, *2 acyl side, *3 side chain or, on linkers, in order; H or OH if unused. Where a SMILES comes first, the peptide text is derived from it. Side-chain parts run from the residue outwards. [ ]: non-standard residue; d: D form. The star is where a group is joined. γGlu = O=C(O)[C@H](CCC(=O)[*:2])N[*:1]; αMeF = C[C@](N)(Cc1ccccc1)C(=O)O; αMeK = C[C@](N)(CCCCN)C(=O)O; Lauroyl = CCCCCCCCCCCC(=O)*; αMeS = C[C@](N)(CO)C(=O)O; AEEA = NCCOCCOCC(=O)O; Aib = CC(C)(N)C(=O)O

With `CCCCCCCCCCCC(=O)N[C@@H](CCC(=O)NCCOCCOCC(=O)NCCOCCOCC(=O)NCCCC[C@H](NC(=O)[C@H](C)NC(=O)[C@@H](NC(=O)[C@](C)(Cc1ccccc1)NC(=O)[C@H](CCC(=O)O)NC(=O)[C@](C)(CCCCN)NC(=O)[C@H](C)NC(=O)[C@H](C)NC(=O)[C@H](CCC(=O)O)NC(=O)CNC(=O)[C@H](CCC(=O)O)NC(=O)[C@H](CC(C)C)NC(=O)[C@H](CCCCNC(=O)COCCOCCNC(=O)COCCOCCNC(=O)CC[C@H](NC(=O)CCCCCCCCCCC)C(=O)O)NC(=O)[C@H](CO)NC(=O)[C@](C)(CO)NC(=O)[C@@H](NC(=O)[C@H](CC(=O)O)NC(=O)[C@H](CO)NC(=O)[C@@H](NC(=O)[C@](C)(Cc1ccccc1)NC(=O)[C@H](CO)NC(=O)CNC(=O)[C@H](CCC(=O)O)NC(=O)C(C)(C)NC(=O)[C@@H](N)Cc1c[nH]cn1)[C@@H](C)O)C(C)C)[C@@H](C)CC)C(=O)N[C@H](C(=O)N[C@H](C(=O)N[C@@H](CCC(=O)O)C(=O)NCC(=O)NCC(N)=O)C(C)C)C(C)C)C(=O)O` [MEDI7219] (H-H[Aib]EGS[αMeF]TSDV[αMeS]SK([AEEA-AEEA-γGlu-Lauroyl])LEGEAA[αMeK]E[αMeF]IAK([AEEA-AEEA-γGlu-Lauroyl])VVEGG-NH2; N-terminus and C-terminus assumed), the “Tm 2” value in data set [1] was 74 °C and 74.0 (±0.1) °C. For the same compound, the total area in data set [1] (20–105 °C at 60 °C/h) is listed as 806.3 (±5.8) kJ/mol. In addition, the ΔG result in data set [2] (setting [5]) was “–21.8 (±0.87) kJ mol^–1”. Also, the “–TΔS” value in data set [2] (setting [5]) is given as “–15.3 (±1.28) kJ mol^–1”; in data set [2] (setting [6]), “–52.1 (±4.34) kJ mol^–1”; in data set [2] (setting [7]), “–52.5 (±4.35) kJ mol^–1”; in data set [2] (setting [8]) it was “–51.3 (±6.16) kJ mol^–1”; in data set [2] (setting [9]), “–60.9 (±7.70) kJ mol^–1”. Besides, the Kd in data set [2] (setting [5]) came out at 176 µM; in data set [2] (setting [6]), 24 µM; in data set [2] (setting [7]) it was 55.6 µM; in data set [2] (setting [8]) it was 35.1 µM; in data set [2] (MEDI7219 → HSA, no polysorbate, 30 °C, [HSA] = 0.15 mM, [MEDI7219] = 2.5 mM, average across all experiments), 40.3 µM. Also, the ΔH is 25.3 (±0.70) kJ mol^–1 in data set [2] (setting [6]), 27.8 (±9.32) kJ mol^–1 in data set [2] (setting [7]), 25.4 (±1.03) kJ mol^–1 in data set [2] (setting [8]) and 35.4 (±8.19) kJ mol^–1 in data set [2] (setting [9]). Also, the results for the “αi (K B/A/K B)” value in data set [2] (MEDI7219 → HSA + RG T80 (1 × CMC)) and in data set [2] (MEDI7219 → HSA + SR T80 (1 × CMC)) were 1.68 and 1.30, respectively. The association constant in data set [2] (MEDI7219 → HSA, no polysorbate, 30 °C, example titration) is recorded as 2.4 × 10^4 M^–1. In addition, the “decrease of dissociation constant of MEDI7219” value in data set [2] (in the presence of RG T80 versus its absence) is 2 fold.

“Polyoxyethylene (20) sorbitan monolaurate [RG T20]”: in data set [3] (setting [10]), the ΔG entry is given as “–15.40 (±0.77) kJ mol^–1”, the ΔH entry is “–9.07 (±9.4 × 10^–7) kJ mol^–1”, the “–TΔS” value is listed as “–6.36 (±0.26) kJ mol^–1” and the “αii (K A/B/K A)” value is reported as 0.47. In data set [3] (setting [11]), the Kd stood at 2210 µM. Further, in data set [3] (setting [12]), the ΔG entry is recorded as “–17.30 (±0.87) kJ mol^–1”, the ΔH entry is recorded as “–83.70 (±36.7) kJ mol^–1”, the “–TΔS” value is 66.40 (±2.74) kJ mol^–1 and the Kd turned out to be 1030 µM.

For “Polyoxyethylene (20) sorbitan monolaurate [SR T20]”, in data set [3] (setting [10]), the ΔG entry is given as “–16.10 (±0.81) kJ mol^–1”, the ΔH entry is “–4.19 (±0.62) kJ mol^–1”, the “–TΔS” value is “–11.90 (±0.50) kJ mol^–1” and the “αii (K A/B/K A)” value is given as 0.43. Further, the Kd in data set [3] (setting [11]) came to 1690 µM. Moreover, in data set [3] (setting [12]), the ΔG result is given as “–18.20 (±0.91) kJ mol^–1”, the ΔH entry was “–43.10 (±6.15) kJ mol^–1”, the “–TΔS” value is reported as 24.90 (±1.03) kJ mol^–1 and the Kd was 721 µM.

As for “native GLP-1: native glucagon-like peptide-1, literature comparison”, the association constant in data set [4] is given as 2.3 × 10^8 M^–1.

For “polyoxyethylene (20) sorbitan monooleate [RG T80]”, in data set [3] (setting [10]), the ΔG entry is reported as “–16.00 (±0.80) kJ mol^–1”, the ΔH result is “–8.75 (±4.46) kJ mol^–1”, the “–TΔS” value was “–7.25 (±0.23) kJ mol^–1” and the “αii (K A/B/K A)” value is 0.57. Besides, the Kd in data set [3] (setting [11]) came out at 1760 µM. For the same compound, in data set [3] (setting [12]), the ΔG result is “–17.40 (±0.87) kJ mol^–1”, the ΔH entry is given as “–9.13 (±1.29) kJ mol^–1”, the “–TΔS” value was “–8.26 (±0.34) kJ mol^–1” and the Kd came out at 1010 µM.

Turning to “polyoxyethylene (20) sorbitan monooleate [SR T80]”, in data set [3] (setting [10]), the ΔG result is reported as “–16.80 (±0.84) kJ mol^–1”, the ΔH result is given as “–8.72 (±2.7 × 10^–5) kJ mol^–1”, the “–TΔS” value is on record as “–8.09 (±0.33) kJ mol^–1” and the “αii (K A/B/K A)” value stood at 0.40. Further, the Kd in data set [3] (setting [11]) was 1280 µM. In data set [3] (setting [12]), the ΔG entry is reported as “–19.10 (±0.10) kJ mol^–1”, the ΔH entry is reported as “–30.10 (±2.02) kJ mol^–1”, the “–TΔS” value is listed as 11.00 (±0.45) kJ mol^–1 and the Kd was 513 µM.
